Molecules are shown by their SMILES. Entries after “also recorded” stand apart in the source; their conditions may differ.

One series is described as follows: Rising MTD study in mice. The settings on record: mouse, in vivo, 1000 mg/kg/day, read-out: Approximate Cmax. The protocol:
(Approximate Cmax@ [1000 mg/kg/day] was […]). Based on these studies, 10 mg was determined to be a safe starting dose in the human study.

Series [1] relates to type II collagen-induced arthritis. In words: Type II collagen-induced arthritis (CIA). It is filed as in vivo, mice. The protocol:
VGX-1027 was administered intraperitoneally and were measured for an arthritic score (A), cumulative arthritic score (B), hind paws edema (C), and histological score (D) were measured. Data are shown as mean values±SD form 2 independent experiments. Statistical analysis was performed by Student's t test. *p<0.0001 was taken as significant.
To induce CIA, the mice were injected intradermally at the base of the tail with […] of an emulsion containing […] of CII, and were boosted on day 21. In terms of treatment, VGX-1027 was used only as a “therapeutic” regime by administering the drug via intraperitoneal administration to mice with a clinical score equal or higher than 1. The mice were treated with vehicle, dexamethasone (0.3 mg/kg), or VGX-1027 (0.5 mg/mouse) for 10 consecutive days. The mice were assessed with the following scoring system: 0=no signs of arthritis; 1=swelling and/or redness of the paw or 1 digit; 2=involvement of 2 joints; 3=involvement of N2 joints, and 4=severe arthritis of the entire paw and digits. An arthritis index was calculated for each mouse by summing the scores for the individual paws. Other clinical severity measures were hind paw volume and histological assessment of damage; the latter was measured with the following criteria: 0=no damage; 1=edema; 2=presence of inflammatory cells; and 3-bone resorption.

In the next series the test system is SEB-induced lethal shock. More on the design: species or system mice. Conditions: mouse, in vivo.

In the case of `O=C(O)CC1CC(c2ccccc2)=NO1` (stereo not shown) [VGX-1027, 3-phenyl-4,5-dihydro-5-isoxazoleacetic acid], the Cmax (as a rule, the peak of the concentration-time curve) in the series “Rising MTD study in mice” is roughly 400 µg/mL. Moreover, in series [1] (after 3 days of therapy), the hind paw volume entry was “significant decreases” and the mean arthritic score result is recorded as “significant decreases”. Also, in series [1] (mouse, in vivo), the “inflammation via histological measurement” value is recorded as “improvements”. For the same compound, in series [1] (therapeutic, i.p. 0.5 mg/mouse, 10 days), the “clinical features of CIA” value is “attenuated; also recorded: comparable to the amount observed with dexamethasone”. The “symptomology associated with SEB challenge” value in the series with SEB-induced lethal shock was “attenuated”. For the same compound, the survival in the series on SEB-induced lethal shock (ip) was determined as 50%.

(Values after patent publication US20150064221A1, “COMPOUNDS HAVING IMMUNOMUDULATOR ACTIVITY” (priority 2012, published 2015).)
